Reference: patent US20240315990A1, “Adelmidrol For Use In Diseases Characterized By Insufficient Agonism Of PPAR-GAMMA Receptor” (Epitech Group S.P.A., priority 2016, published 2024)

Molecular target: T1, PPAR-gamma receptor (Rattus norvegicus, UniProt O88275)
T1 construct: from tissue; host or cells: live rat (in vivo, paw edema model)
T1 sequence (O88275 1-505): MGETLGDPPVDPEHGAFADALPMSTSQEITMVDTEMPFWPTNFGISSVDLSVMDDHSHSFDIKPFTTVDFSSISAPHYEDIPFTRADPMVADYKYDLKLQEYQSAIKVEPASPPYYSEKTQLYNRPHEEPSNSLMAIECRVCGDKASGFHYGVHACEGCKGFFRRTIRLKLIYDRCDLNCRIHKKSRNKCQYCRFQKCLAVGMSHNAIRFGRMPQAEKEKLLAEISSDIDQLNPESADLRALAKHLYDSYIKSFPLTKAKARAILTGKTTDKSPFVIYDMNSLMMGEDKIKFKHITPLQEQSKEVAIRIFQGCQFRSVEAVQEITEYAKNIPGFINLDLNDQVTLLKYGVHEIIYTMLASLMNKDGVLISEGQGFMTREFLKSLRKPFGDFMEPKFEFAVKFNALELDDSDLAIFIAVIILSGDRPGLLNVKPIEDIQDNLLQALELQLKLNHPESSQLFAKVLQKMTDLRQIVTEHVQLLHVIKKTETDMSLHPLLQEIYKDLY
Assay: carrageenan-induced rat paw edema with PPAR-gamma antagonist GW9662, residence time of the paw on the hot plate
Format: in vivo
Conditions: GW9662 1 mg/kg i.p. 30 min before CAR, Adelmidrol 10 mg/kg i.p.
Procedure: The experimental model of carrageenan-induced rat paw edema is as shown above. In this experiment, the effect was assessed by measuring the residence time of the animal's paw on the hot plate, thus obtaining percentage data with respect to the control treated with carrageenan alone.
The rats (10 animals per group) were divided into the following experimental groups: • CAR+physiological solution; • CAR+GW9662 (1 mg/kg)+Adelmidrol (10 mg/kg); GW9662 was administered i.p. 30 min before injecting CAR and Adelmidrol (i.p.) when injecting CAR; • CAR+Adelmidrol (10 mg/kg); Adelmidrol was administered i.p. when injecting CAR.

O=C(Nc1ccccc1)c1cc([N+](=O)[O-])ccc1Cl [GW9662, reference compound]
effect of pretreatment with PPAR-gamma antagonist on the protective action of Adelmidrol: antagonized the effect of Adelmidrol thus substantially abolishing the protective action thereof
